Activity calls are given as the source filed them. No cut-off for these calls is given here.

For one assay, the system named is NCI-H1581. Put plainly: Antiproliferative activity against human NCI-H1581 cells incubated for 48 hrs by MTT assay. The note with it: NCI-H1581, 48 h. The assay is classed as functional, cell-based. (In general: Formazan colour is commonly taken as a measure of viable cells.)
The subject of another assay is HCT-116. Put plainly: Antiproliferative activity against human HCT-116 cells incubated for 48 hrs by MTT assay. The note with it: HCT-116, 48 h. The assay is classed as functional, cell-based.
Assay [1] concerns the target T1, Protein deacetylase HDAC6 (Homo sapiens, UniProt Q9UBN7).
T1 sequence (Q9UBN7 whole entry): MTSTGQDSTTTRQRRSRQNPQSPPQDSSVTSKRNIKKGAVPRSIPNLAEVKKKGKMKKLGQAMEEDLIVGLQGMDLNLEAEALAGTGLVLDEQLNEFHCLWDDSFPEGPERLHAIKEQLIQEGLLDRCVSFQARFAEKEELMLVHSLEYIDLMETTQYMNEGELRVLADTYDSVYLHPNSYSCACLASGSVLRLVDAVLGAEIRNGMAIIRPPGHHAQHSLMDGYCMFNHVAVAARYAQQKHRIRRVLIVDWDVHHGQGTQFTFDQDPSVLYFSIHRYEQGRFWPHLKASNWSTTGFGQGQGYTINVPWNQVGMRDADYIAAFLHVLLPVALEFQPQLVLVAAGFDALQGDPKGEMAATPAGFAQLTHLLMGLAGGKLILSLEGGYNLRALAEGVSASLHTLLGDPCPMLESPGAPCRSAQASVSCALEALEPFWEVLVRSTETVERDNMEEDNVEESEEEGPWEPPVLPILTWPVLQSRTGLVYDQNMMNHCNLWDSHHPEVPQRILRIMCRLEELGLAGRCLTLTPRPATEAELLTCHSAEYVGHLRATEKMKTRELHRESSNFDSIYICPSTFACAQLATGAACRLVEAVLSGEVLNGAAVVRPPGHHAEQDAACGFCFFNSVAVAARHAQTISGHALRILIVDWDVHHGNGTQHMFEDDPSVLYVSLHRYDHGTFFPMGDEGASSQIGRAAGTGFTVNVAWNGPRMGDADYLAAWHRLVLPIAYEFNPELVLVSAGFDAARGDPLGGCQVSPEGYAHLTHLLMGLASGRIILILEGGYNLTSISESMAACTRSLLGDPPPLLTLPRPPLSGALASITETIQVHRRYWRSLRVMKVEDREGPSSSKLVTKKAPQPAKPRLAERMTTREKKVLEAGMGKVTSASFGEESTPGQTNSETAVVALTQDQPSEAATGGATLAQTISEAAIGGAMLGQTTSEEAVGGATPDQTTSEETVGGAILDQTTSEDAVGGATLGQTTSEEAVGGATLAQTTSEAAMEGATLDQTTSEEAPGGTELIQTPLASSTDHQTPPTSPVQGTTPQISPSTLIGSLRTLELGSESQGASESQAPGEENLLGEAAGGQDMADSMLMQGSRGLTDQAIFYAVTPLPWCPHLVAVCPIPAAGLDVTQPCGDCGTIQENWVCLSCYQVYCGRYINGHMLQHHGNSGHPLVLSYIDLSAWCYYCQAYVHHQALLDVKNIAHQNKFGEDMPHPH
Kind of assay: Inhibition of recombinant human HDAC6 using Boc-Lys(Ac)-AMC as substrate preincubated for 1 hr followed by substrate addition and measured after 2 hrs by microplate reader assay.

For the next assay, the system named is EBC-1. Kind of assay: Antiproliferative activity against human EBC-1 cells incubated for 48 hrs by MTT assay. The assay is classed as functional, cell-based. The note with it: EBC-1, 48 h.
The target in assay [2] is Class 1 histone deacetylase (Homo sapiens) (UniProt Q13547+O15379+Q92769+Q9BY41). Kind of assay: Inhibition of class 1 HDACs in human HCT-116 cells assessed as upregulation of acetylated alpha-H3 level at 1 uM incubated for 24 hrs by Western blotting analysis. In kind it is cell-based. In general terms: A western blot detects proteins with antibodies after separation by electrophoresis.

Assay [3] deals with T2, Protein deacetylase HDAC6 (Homo sapiens) (UniProt Q9UBN7).
T2 sequence (whole entry): T1 sequence (Q9UBN7 whole entry)
Kind of assay: Inhibition of HDAC6 in human HCT-116 cells assessed as upregulation of acetylated alpha-tubulin level at 1 uM incubated for 24 hrs by Western blotting analysis. In kind it is cell-based.

Another assay addresses Histone deacetylase 1 (Homo sapiens, UniProt Q13547). Put plainly: Inhibition of recombinant human HDAC1 using Boc-Lys(Ac)-AMC as substrate preincubated for 1 hr followed by substrate addition and measured after 2 hrs by microplate reader assay.

Chain of Histone deacetylase 1 (Q13547 whole entry): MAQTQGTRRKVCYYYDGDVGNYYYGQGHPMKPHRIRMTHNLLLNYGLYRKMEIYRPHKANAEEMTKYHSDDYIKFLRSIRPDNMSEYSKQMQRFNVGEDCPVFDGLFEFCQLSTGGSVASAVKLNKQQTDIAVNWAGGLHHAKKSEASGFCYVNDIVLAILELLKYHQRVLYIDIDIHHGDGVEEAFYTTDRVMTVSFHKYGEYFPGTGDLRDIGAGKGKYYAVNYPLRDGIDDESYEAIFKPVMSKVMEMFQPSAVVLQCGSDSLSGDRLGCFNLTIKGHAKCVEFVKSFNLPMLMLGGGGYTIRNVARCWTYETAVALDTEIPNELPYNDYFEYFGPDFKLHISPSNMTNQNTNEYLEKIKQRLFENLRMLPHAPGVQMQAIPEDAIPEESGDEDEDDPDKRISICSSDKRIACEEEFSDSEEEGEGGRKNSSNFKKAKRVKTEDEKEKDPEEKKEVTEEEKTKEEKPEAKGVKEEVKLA
Chain of Class 1 histone deacetylase (Homo sapiens) (O15379 whole entry, looked up): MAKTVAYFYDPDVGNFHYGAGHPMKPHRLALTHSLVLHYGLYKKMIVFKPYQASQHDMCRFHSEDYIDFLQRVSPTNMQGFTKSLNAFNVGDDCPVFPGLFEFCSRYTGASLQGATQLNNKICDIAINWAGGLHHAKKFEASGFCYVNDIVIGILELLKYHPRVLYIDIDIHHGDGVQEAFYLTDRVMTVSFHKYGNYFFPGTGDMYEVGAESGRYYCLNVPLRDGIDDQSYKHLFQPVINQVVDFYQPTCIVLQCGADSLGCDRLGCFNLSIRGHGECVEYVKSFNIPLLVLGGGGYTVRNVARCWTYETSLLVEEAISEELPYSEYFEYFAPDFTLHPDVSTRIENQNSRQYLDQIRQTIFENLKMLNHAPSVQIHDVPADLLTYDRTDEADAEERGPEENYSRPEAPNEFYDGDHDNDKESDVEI
Chain of Class 1 histone deacetylase (Homo sapiens) (Q13547 whole entry, looked up): as the sequence (Q13547 whole entry) above
Chain of Class 1 histone deacetylase (Homo sapiens) (Q92769 whole entry, looked up): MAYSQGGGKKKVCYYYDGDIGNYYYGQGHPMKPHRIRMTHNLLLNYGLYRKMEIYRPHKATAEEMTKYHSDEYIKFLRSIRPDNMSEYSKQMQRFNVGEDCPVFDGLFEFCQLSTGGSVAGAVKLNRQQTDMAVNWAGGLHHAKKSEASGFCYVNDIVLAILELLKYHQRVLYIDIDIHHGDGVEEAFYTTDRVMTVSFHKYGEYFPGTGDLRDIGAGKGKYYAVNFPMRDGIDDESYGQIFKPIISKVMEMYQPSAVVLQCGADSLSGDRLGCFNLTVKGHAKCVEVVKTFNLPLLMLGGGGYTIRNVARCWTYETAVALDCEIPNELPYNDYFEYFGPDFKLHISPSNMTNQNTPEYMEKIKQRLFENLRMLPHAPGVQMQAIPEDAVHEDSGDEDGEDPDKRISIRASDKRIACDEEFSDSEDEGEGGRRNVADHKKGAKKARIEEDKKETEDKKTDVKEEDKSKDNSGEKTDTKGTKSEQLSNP
Chain of Class 1 histone deacetylase (Homo sapiens) (Q9BY41 whole entry, looked up): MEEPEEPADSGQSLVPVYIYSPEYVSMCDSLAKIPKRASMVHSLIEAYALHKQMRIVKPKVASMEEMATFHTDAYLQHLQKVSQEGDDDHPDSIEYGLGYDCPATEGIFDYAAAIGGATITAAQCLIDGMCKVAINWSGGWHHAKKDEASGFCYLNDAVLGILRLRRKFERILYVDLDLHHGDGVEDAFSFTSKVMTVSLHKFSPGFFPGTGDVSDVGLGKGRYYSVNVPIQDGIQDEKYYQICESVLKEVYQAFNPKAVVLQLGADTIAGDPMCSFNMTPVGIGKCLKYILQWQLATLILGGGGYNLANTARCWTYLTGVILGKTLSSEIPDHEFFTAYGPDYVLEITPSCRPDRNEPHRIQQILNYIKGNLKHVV

A word on the IC50: it is the concentration that gives 50% inhibition. `O=C(NCC[Se][Se]CCNC(=O)/C(Cc1ccc(Br)s1)=N/O)/C(Cc1ccc(Br)s1)=N/O`: the IC50 came out at 300 nM in the assay on NCI-H1581; 410 nM with HCT-116; 3600 nM in assay [1]; 720 nM in the assay on EBC-1; 570 nM at Histone deacetylase 1. Besides, the inhibition result in assay [2] and in assay [3] was “Active” each time.
